Experimental data taken from the NIST ThermoML archive (doi:10.1021/je500092v).
Values joined by “and” are separate entries in the source; they are usually repeats but may differ in a detail not shown here. Equal entries are not always repeated. Numbers after ± are expanded uncertainties.

Key:
[1] = Liquid, Ebulliometric method (Recirculating still)
[2] = refractive index (Na D-line) (dimensionless); conditions: 293.15 K; 101.33 kPa; Liquid; Standard Abbe refractometry

vapor or sublimation pressure ([1]; 313.15 K) [kPa] | vapor or sublimation pressure ([1]; 335.15 K) [kPa] | vapor or sublimation pressure ([1]; 343.15 K) [kPa] | vapor or sublimation pressure ([1]; 363.15 K) | vapor or sublimation pressure ([1]; 380.15 K) [kPa] | vapor or sublimation pressure ([1]; 399.53 K) [kPa] | vapor or sublimation pressure ([1]; 425.91 K) [kPa] | vapor or sublimation pressure ([1]; 448.97 K) [kPa] | refractive index [2] | vapor or sublimation pressure ([1]; 337.8 K) [kPa] | vapor or sublimation pressure ([1]; 355.78 K) [kPa] | vapor or sublimation pressure ([1]; 371.94 K) [kPa] | Structure (SMILES)
0.13 ± 0.13 | 0.51 ± 0.13 | 0.79 ± 0.26 | 2.18 ± 0.26 kPa and 2.17 ± 0.26 kPa | 4.98 ± 0.27 | 10 ± 0.34 | 25 ± 0.61 | 50 ± 1.1 | 1.4703 ± 0.0004 | – | – | – | CN1CCCC1=O [N-methylpyrrolidone]
– | – | – | – | – | – | – | – | 1.3992 ± 0.0004 | 10 ± 0.23 | 25 ± 0.44 | 50 ± 0.78 | CCCCO [butan-1-ol]
45.01 ± 0.48 | 96.56 ± 0.7 | – | 218.59 ± 1.2 kPa | – | – | – | – | 1.3838 ± 0.0004 | – | – | – | C=CCCCC [hex-1-ene]
